# Literature values in patent US5210089A, “D-rhamnono-1,5-lactone” (Monsanto Company, priority 1992, dated 1993).
# Molecular target: T1, Lysosomal α-mannosidase (Homo sapiens, UniProt O00754)
# T1 sequence (O00754 50-1011): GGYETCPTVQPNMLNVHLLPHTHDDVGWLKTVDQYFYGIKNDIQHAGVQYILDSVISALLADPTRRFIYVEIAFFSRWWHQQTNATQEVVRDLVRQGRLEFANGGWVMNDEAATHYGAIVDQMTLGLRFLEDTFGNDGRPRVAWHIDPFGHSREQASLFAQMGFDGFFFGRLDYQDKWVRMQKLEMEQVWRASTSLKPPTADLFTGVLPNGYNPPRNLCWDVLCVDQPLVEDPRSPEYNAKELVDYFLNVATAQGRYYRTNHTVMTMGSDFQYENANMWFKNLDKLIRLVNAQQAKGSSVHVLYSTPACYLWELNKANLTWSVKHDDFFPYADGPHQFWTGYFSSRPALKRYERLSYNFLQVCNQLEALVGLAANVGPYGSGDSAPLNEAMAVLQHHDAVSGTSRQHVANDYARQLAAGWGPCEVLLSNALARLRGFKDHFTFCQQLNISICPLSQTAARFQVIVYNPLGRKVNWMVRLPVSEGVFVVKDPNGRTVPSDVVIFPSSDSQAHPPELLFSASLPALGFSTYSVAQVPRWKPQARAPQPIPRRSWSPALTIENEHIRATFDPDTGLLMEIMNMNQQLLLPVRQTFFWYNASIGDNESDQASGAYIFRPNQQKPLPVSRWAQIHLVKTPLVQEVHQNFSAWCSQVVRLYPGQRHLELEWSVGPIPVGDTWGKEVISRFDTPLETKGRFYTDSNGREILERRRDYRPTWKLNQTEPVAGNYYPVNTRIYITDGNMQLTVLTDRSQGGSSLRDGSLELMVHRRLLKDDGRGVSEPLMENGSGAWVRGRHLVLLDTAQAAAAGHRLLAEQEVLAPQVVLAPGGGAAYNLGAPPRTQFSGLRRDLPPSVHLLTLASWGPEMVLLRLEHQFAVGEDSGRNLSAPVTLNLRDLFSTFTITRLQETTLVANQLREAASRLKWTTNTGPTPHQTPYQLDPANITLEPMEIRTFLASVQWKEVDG
# Details: literature; cited from earlier work
smiles,measurement,value
"O=C1N[C@H](CO)[C@@H](O)[C@H](O)[C@@H]1O [Mannono-1,5-lactam (2), D-mannonolactam]",Inhibition of human lysosomal α-mannosidase (in words),powerful inhibitor
